# Reference: PubChem BioAssay AID1645863 (Buhrlage Lab, Dana-Farber Cancer Institute and Novartis …, 2021)
# Activity calls are given as the source filed them. How the calls were made is not given here.
# Molecular target: Ubiquitin carboxyl-terminal hydrolase 10 (Homo sapiens) (UniProt Q14694)
# Assay: primary hit verification, biochemical, ubiquitin-specific protease 10 deubiquitylase inhibitors, concentration-effect titration (AID 1645863);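 further: potency values describe inhibition of USP10 cleavage of a fluorogenic ubiquitin substrate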
# Settings: USP10 deubiquitinase enzymatic assay
# Ubiquitin carboxyl-terminal hydrolase 10 (Homo sapiens), sequence (Q14694 whole entry, looked up): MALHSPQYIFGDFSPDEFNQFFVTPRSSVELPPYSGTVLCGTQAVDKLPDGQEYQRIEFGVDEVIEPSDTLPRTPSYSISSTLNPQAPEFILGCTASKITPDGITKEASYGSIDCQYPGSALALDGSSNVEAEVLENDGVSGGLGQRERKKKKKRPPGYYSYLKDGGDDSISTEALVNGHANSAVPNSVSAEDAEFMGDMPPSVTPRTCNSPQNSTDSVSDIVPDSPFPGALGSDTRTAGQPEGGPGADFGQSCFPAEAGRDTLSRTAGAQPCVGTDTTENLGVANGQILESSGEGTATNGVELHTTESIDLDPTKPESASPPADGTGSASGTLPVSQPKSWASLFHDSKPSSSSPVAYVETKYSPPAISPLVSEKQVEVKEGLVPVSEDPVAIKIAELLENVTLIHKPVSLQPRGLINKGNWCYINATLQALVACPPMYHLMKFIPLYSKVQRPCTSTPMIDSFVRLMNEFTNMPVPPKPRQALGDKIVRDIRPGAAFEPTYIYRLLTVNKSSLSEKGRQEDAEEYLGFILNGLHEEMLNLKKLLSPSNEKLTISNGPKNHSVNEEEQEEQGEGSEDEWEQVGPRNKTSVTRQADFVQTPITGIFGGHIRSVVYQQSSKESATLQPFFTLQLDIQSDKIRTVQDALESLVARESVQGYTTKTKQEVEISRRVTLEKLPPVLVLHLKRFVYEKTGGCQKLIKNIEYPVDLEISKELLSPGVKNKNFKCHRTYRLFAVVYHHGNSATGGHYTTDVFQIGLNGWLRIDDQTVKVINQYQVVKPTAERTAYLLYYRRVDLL
row,SMILES,IC50
1,CCCn1cc(-c2nc(-c3ccccn3)no2)c(=O)c2ccccc21,> 40 µM (inactive)
2,CCc1nnc(-c2ccc3ccn(CC(=O)N4CCN(c5ccccn5)CC4)c3c2)o1,> 40 µM (inactive)
3,COc1ccc(C)cc1NC(=O)CN1C(=O)C2CCCC2=Nc2ccccc21 (stereo not given),> 40 µM (inactive)
4,CC[C@H](C)[C@H](NC(=O)[C@H]([C@@H](C)CC)N(C)C(C)=O)C(=O)N[C@H](C(=O)N[C@@H](CC(C)C)C(=O)C1(C)CO1)[C@@H](C)O (stereo not given in full),> 40 µM (inactive)
5,CC(NC(=O)c1ccccc1)c1nc2ccccc2n1CC(=O)Nc1ccc(OC(F)(F)F)cc1 (stereo not given),37.9 µM
6,O=C1c2c(O)cccc2C2(Oc3cccc4cccc(c34)O2)C2OC12 (stereo not given),15.5 µM
7,Cc1cc(C)c(NC(=O)Cn2c(=O)n(CCC(=O)NCc3ccc4c(c3)OCO4)c(=O)c3sccc32)c(C)c1,21.4 µM
8,Cc1cccc(NC(=O)CSc2nc3c(cc2C#N)C(=O)CCC3)c1,26.4 µM
9,CCc1ccc(-n2cc(OC(C)=O)c3c2nc(C)n2c4ccccc4nc32)cc1,> 40 µM (inactive)
10,Cc1cc(C(=O)N2CCOCC2)c(C)n1-c1ccc(O)cc1,> 40 µM (inactive)
11,O=C(Nc1cccc(-c2nc3ncccc3o2)c1)c1ccc([N+](=O)[O-])cc1,> 40 µM (inactive)
12,O=C(Nc1ccccc1)[C@@H]1[C@@H]2C(=O)N(c3ccc([N+](=O)[O-])cc3)C(=O)[C@@H]2[C@H]2c3ccccc3C=CN12,> 40 µM (inactive)
13,N#Cc1cccc(NC(=O)Nc2cccn(Cc3ccc(F)cc3)c2=O)c1,> 40 µM (inactive)
14,CC1=CC(=O)C(C2=C(O)C(=O)C(C)=CC2=O)=C(O)C1=O,12 µM
15,O=C(Nc1nc2c(ccc3ccccc32)s1)c1cccc(Br)c1,> 40 µM (inactive)
16,CCc1ccccc1NC(=O)Cn1c(SCc2ccc(F)cc2)nc2cccnc21,25 µM
17,Cc1ccnc(Nc2nc(-c3ccccc3)c3cc(Cl)ccc3n2)n1,14.7 µM
18,O=C(Cn1cccc(-c2nc(-c3ccccc3)no2)c1=O)Nc1ccccc1F,> 40 µM (inactive)
19,O=C(CCc1nnc2n(Cc3ccccc3Cl)c(=O)c3ccccc3n12)NCc1ccccc1,> 40 µM (inactive)
20,CCCCCCCC1OC(=O)Cc2cc(O)c(O)c(O)c21 (stereo not given),3.3 µM
21,Cc1ccc2[nH]c3c(=O)n(Cc4ccc(N(C)C)cc4)cnc3c2c1,19.5 µM
22,O=C(Nc1ccc(C(F)(F)F)cc1)C1CC(=O)N(c2ccc3c(c2)OCCO3)C1 (stereo not given),> 40 µM (inactive)
23,Cc1ccccc1-n1ccc2nc(N3CCCC3)ncc2c1=O,> 40 µM (inactive)

row,SMILES,IC50
1,Cc1ccc(C(=O)O)cc1NC(=O)C(Sc1cccc(NC(=O)c2ccccc2C)c1)c1ccccc1 (stereo not given),> 40 µM (inactive)
2,O=C(NCCc1cccnc1)c1ccn(-c2ccc3ccccn23)n1,> 40 µM (inactive)
3,Cc1nc(N2CCCC2)ncc1-c1cc(=O)[nH]c(Nc2ccc(Cl)cc2Cl)n1,12.2 µM
4,O=C(c1cccnc1)N1CCCC(Cc2cc(-c3ncc[nH]3)ncn2)C1 (stereo not given),> 40 µM (inactive)
5,COc1ccc(C(=O)COC(=O)c2ccccc2NS(=O)(=O)c2ccc(O)c([N+](=O)[O-])c2)cc1,9.78 µM
6,O=C(Cn1c(=O)[nH]c2ccccc2c1=O)NCc1ccccc1Cl,> 40 µM (inactive)
7,O=C(Nc1ccccc1C(F)(F)F)c1cccc(S(=O)(=O)Nc2cc(C(F)(F)F)ccc2Cl)c1,> 40 µM (inactive)
8,Cc1cc(=O)n(CC(=O)Nc2ccc3c(c2)OCO3)c2c1c(-c1ccccc1)nn2-c1ccccc1,> 40 µM (inactive)
9,O=C(COc1ccc(N2CC(C(=O)NCc3ccc4c(c3)OCO4)CC2=O)cc1)Nc1ccc(Cl)cc1 (stereo not given),11.8 µM
10,Cc1ccc(Cn2c(=O)c3ncccc3n(CC(=O)NCc3ccc(F)cc3)c2=O)cc1,26.1 µM
11,Cc1ccc2[nH]c(=O)c(-c3nc4ccc(C)cn4c3NCc3ccc(F)cc3)cc2c1,20.3 µM
12,Cn1nc(Cl)c(Cl)c1Oc1ccc(S(=O)(=O)Nc2ccc(Oc3ccc(C(F)(F)F)cn3)c(Cl)c2)cc1,13 µM
13,Cc1ncc(CO)c2c1Oc1nc(-c3cccc(Cl)c3)nc(SCC(=O)N3CCCCC3)c1C2,> 40 µM (inactive)
14,O=C(Nc1ccccc1-c1nc2ccccc2[nH]1)c1sc2ccccc2c1Cl,9.23 µM
15,O=C(Nc1nc(-c2ccccc2)ns1)c1ccc2ncsc2c1,31.6 µM
16,Cc1ccc(-c2nc3c(c(SCC(=O)c4ccccc4)n2)COC(C)(C)C3)cc1,> 40 µM (inactive)
17,COc1ccccc1CNC(=O)Cn1cnc2c(-c3ccccc3)csc2c1=O,> 40 µM (inactive)
18,COc1ccc(N/C=C/c2onc(C)c2[N+](=O)[O-])c(OC)c1,> 40 µM (inactive)
19,CS(=O)(=O)NC1CCCN(C(=O)Nc2cccc3ccccc23)C1 (stereo not given),> 40 µM (inactive)
20,Cn1c(=O)[nH]c(=O)c2c1nc(N1CCc3ccccc3C1)n2CCSc1nnnn1-c1ccccc1,> 40 µM (inactive)
21,N#Cc1cc(C(=O)c2cc(Cl)ccc2O)cn(-c2ccccn2)c1=O,> 40 µM (inactive)
22,COc1ccc(C)cc1NC(=O)C1CC(=O)Nc2nc3ccccc3n21 (stereo not given),28.1 µM
23,C[C@H](NC(=O)Cc1ccccc1F)c1nc2cc(-c3ccccc3F)ncn2n1,36.4 µM

row,SMILES,IC50
1,COc1ccccc1N(CC(=O)N1c2ccccc2CC1C)S(=O)(=O)c1ccc(F)cc1 (stereo not given),> 40 µM (inactive)
2,Cc1c(-c2nsc(NC(=O)c3ccc(Cl)cc3)n2)nnn1-c1ccccc1F,15.7 µM
3,COc1ccc(NC(=O)CNC(=O)c2ccc3nc(-n4cccc4)sc3c2)cc1,> 40 µM (inactive)
4,O=C(CN1CC=C(c2ccccc2)CC1)Nc1ccc(S(=O)(=O)N2CCOCC2)cc1,> 40 µM (inactive)
5,O=C(Nc1ccc(Br)cc1F)c1ccc(S(=O)(=O)N2CCCC2)cc1,> 40 µM (inactive)
6,CN(C)c1ccc(CNC(=O)c2nnc(C(=O)Nc3ccccc3)s2)cc1,> 40 µM (inactive)
7,COc1cccc(C2c3[nH]c4ccccc4c3C[C@@H]3C(=O)N(CC(O)c4ccccc4)CC(=O)N23)c1 (stereo not given in full),> 40 µM (inactive)
8,O=C(NCc1ccc2c(c1)OCO2)c1cc2c(s1)-c1ccccc1OC2,> 40 µM (inactive)
9,CCOc1ccc(CC(=O)Nc2ccc(-c3cn4cccnc4n3)cc2)cc1,> 40 µM (inactive)
10,N#Cc1cccc(NC(=O)Cn2cccc2-c2nc(-c3ccccc3)no2)c1,> 40 µM (inactive)
11,O=C(c1[nH]nc2c1COc1ccccc1-2)N1CCN(c2ccccn2)CC1,> 40 µM (inactive)
12,Cc1ccc(Cl)cc1NC(=O)c1cc(-c2ccccn2)n[nH]1,> 40 µM (inactive)
13,N#Cc1ccc(NC(=O)Nc2cccn(Cc3ccccc3Br)c2=O)cc1,> 40 µM (inactive)
14,CC(C)Cc1ccc(-c2cc(-c3ccc(C(F)(F)F)cc3)c(C#N)c(=O)[nH]2)cc1,9.8 µM
15,COc1cccc(NC(=O)C(Sc2cccc(NC(=O)c3ccccc3F)c2)c2ccccc2)c1 (stereo not given),33.6 µM
16,Cc1ccc(NC(=O)Cc2sc(Nc3ccc(C)cc3)nc2O)cc1,> 40 µM (inactive)
17,COc1cc(NC(=O)Cn2c(=O)n(-c3ccc(CC(=O)NCc4ccco4)cc3)c(=O)c3ccccc32)cc(OC)c1,23.3 µM
18,Cc1nc2c(nnn2C[C@H]2CCCN2C(=O)c2ccc(F)cc2)c(=O)[nH]1,> 40 µM (inactive)
19,O=C(COc1ccc(N2CC(C(=O)NCc3ccccc3)CC2=O)cc1)Nc1ccc(F)cc1 (stereo not given),> 40 µM (inactive)
20,CSc1ccc(CNC(=O)Cn2c(=O)[nH]c3c(-c4ccccc4)c[nH]c3c2=O)cc1,> 40 µM (inactive)
21,CC(=O)Nc1ccc(Cc2nc(-c3ccc4c(c3)nc(C)c(=O)n4C3CCCC3)no2)cc1,> 40 µM (inactive)
22,O=C(CCCn1c(=O)c2ccccc2n(CC(=O)NCc2ccccc2Cl)c1=O)NCc1ccc2c(c1)OCO2,8.88 µM
23,Cc1ccc(NC(=O)c2cc(-c3ccccn3)nc3c(Cl)cccc23)nc1,> 40 µM (inactive)

row,SMILES,IC50
1,COc1ccccc1N1CCN(C(=O)c2ccc3c(=O)n(CCc4ccccc4)c(=O)[nH]c3c2)CC1,> 40 µM (inactive)
2,Cc1cc(=O)[nH]c(NC2CCN(S(=O)(=O)c3ccccc3C(F)(F)F)CC2)n1,> 40 µM (inactive)
3,Nc1c(-c2ccc(Cl)cc2)cnc2cc(-c3ccc(Cl)c(Cl)c3)nn12,> 40 µM (inactive)
4,CCCCCCC1CCC(O)CC(O)CC(O)CC(O)CC(O)CC(O)/C(C)=C/C=C\C=C/C=C/C=C/[C@H](O)[C@@H](C)OC1=O (stereo not given in full),> 40 µM (inactive)
5,Nc1ccc(C(=O)OCC(=O)NC2CCCc3ccccc32)cc1[N+](=O)[O-] (stereo not given),37.7 µM
6,Cc1sc(NC(=O)Cn2nnc3ccccc32)nc1-c1ccc2c(c1)CCN2C(=O)c1ccccc1F,16.3 µM
7,O=c1oc2c3c(c(Cl)cc2c2c1CCCC2)OCN(Cc1ccccc1)C3,> 40 µM (inactive)
8,CCN(Cc1ccccc1)C(=O)C1CCN(Cc2ccc(OC)c(OC)c2OC)CC1,> 40 µM (inactive)
9,CCc1cc(=O)oc2c(C)c(OCC(=O)NCc3ccccn3)ccc12,> 40 µM (inactive)
10,Cc1ccccc1-c1nnc2sc(COc3ccc(Cl)cc3)nn12,> 40 µM (inactive)
11,O=C(CC1C(=O)Nc2nc3ccccc3n21)Nc1cccc2ccccc12 (stereo not given),16.5 µM
12,COc1ccc(/C=C/C(=O)Nc2ccc3nc(N4CCN(c5ncccn5)CC4)cc(C)c3c2)cc1,> 40 µM (inactive)
13,COc1cc2c(oc(=O)c3cc(C)cc(OC)c32)c2c([C@@H]3OC(C)[C@@H](O)[C@@](C)(O)C3O)ccc(O)c12 (stereo not given in full),> 40 µM (inactive)
14,O=C1C(=O)N(c2nc3ccc(F)cc3s2)C(c2ccc(F)cc2)/C1=C(\O)c1ccc(F)cc1 (stereo not given),11.5 µM
15,O=C(NCc1ccc2c(c1)OCO2)c1cn(-c2cccc(Cl)c2)nn1,33 µM
16,CSC1SCC2C(=O)N(C)C(C(C)C(C)C)C(=O)OCC(NC(=O)c3cnc4ccccc4n3)C(=O)NC(C)C(=O)N(C)C1C(=O)N(C)C(C(C)C(C)C)C(=O)OCC(NC(=O)c1cnc3ccccc3n1)C(=O)NC(C)C(=O)N2C (stereo not given),19.3 µM
17,O=C(NCCc1ccccc1)c1ccc2c(=O)n(Cc3ccco3)c(=O)n(Cc3cccc([N+](=O)[O-])c3)c2c1,8.37 µM
18,O=c1[nH]cccc1NS(=O)(=O)c1ccc(F)cc1,> 40 µM (inactive)
19,Cc1ccc(C(=O)O)cc1NC(=O)C(Sc1cccc(NC(=O)c2cccc(Cl)c2)c1)c1ccccc1 (stereo not given),> 40 µM (inactive)
20,CC/C=C\C/C=C\C/C=C\CCCCCCCC(=O)O,11.9 µM
21,COc1ccc(NS(=O)(=O)c2cc(NC(=O)CC(=O)c3ccc([N+](=O)[O-])cc3)ccc2Cl)cc1,12.2 µM
